One compound from ChEMBL document CHEMBL4706683 (J Med Chem, 2021) can be followed below.

For data set [1], the system named is Plasmodium falciparum. The data set is described as follows: Antiplasmodial activity against Plasmodium falciparum C2A infected in human erythrocytes assessed as reduction in parasite growth incubated for 72 hrs by Giemsa staining based light microscopic method. The conditions noted are these: Erythrocyte. It counts as functional, organism-based.
The subject of data set [2] is Plasmodium falciparum. Put plainly: Antimalarial activity against synchronized schizont stage transgenic Plasmodium falciparum 3D7 with C-terminal 3xTY1-fused HDAC1 knockdown assessed as parasite growth inhibition pretreated with glucosamine followed by compound treatment and incubated for 4 hrs followed by compound washout for thrice and subsequent culturing for 68 hrs by SYBR Green 1 staining based analysis. It counts as functional, organism-based.

The nature of data set [3]: Toxicity in Balb/c mouse infected with sporozoites liver stage Plasmodium berghei assessed as animal death at 30 mg/kg, ip administered as single dose and measured upto 96 hrs. To be noted: in vivo. Type of data set: organism-based.
Another data set deals with Histone deacetylase 2 (Homo sapiens, UniProt Q92769). The data set is described as follows: Inhibition of human HDAC2 expressed in Sf9 cells using Ac-peptide as substrate preincubated for 15 mins followed by substrate and trypsin addition and further incubated for 60 mins.
Sequence of Histone deacetylase 2 (Q92769 whole entry): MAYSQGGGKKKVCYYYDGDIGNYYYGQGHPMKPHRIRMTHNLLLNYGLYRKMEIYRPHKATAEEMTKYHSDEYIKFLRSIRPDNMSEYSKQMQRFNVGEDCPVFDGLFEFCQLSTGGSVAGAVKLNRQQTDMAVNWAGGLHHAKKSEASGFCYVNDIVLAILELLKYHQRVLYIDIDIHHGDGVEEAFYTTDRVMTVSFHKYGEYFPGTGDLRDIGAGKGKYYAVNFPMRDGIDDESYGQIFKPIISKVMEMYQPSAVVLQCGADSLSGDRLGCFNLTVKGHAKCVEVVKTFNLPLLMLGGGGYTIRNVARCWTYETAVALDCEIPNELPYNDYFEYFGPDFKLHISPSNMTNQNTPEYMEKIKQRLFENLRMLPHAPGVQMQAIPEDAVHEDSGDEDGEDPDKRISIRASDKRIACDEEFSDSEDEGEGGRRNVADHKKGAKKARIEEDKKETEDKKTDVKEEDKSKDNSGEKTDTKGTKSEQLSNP
Data set [4] can be described thus: Half life in Balb/c mouse at 10 mg/kg, po administered as single dose measured upto 24 hrs by LC-MS/MS analysis. Type of data set: ADME, organism-based. To be noted: in vivo.

Turning to `Cl.O=C(NO)c1cnc(N2CCC3(CCN(Cc4c[nH]c5ccccc45)C3)CC2)nc1`, the figures for the IC50 with Plasmodium falciparum [1], with Plasmodium falciparum [2] and at Histone deacetylase 2 were 4.5 nM, 32.3 nM and 1.8 nM, respectively. Besides, in data set [3], the Activity entry is “Non-Toxic”. Also, in data set [4], the half-life was 1.73 h.

What is called IC50 is the point on the concentration scale where inhibition reaches its midpoint. A word on the half-life: it is the time needed for the level to fall by half in the phase considered. Higher therefore signals slow loss.
